Test results published in PMC10179460, “Computational and Enzymatic Studies of Sartans in SARS-CoV-2 Spike RBD-ACE2 Binding: The Role of Tetrazole and Perspectives as Antihypertensive and COVID-19 Therapeutics” (International Journal of Molecular Sciences, 2023).
pKd: −log10 of the molar value.

Biological target: T1, ACE2 (angiotensin-converting enzyme 2) (Homo sapiens, UniProt Q9BYF1)
T1 construct: recombinant human ACE2, His-tag and Strep-tag, from Sf9 insect cells
Assay: SPR (Biacore T200, immobilized ACE2, […] kinetic model)
Assay type: binding

T1 sequence (Q9BYF1 18-805): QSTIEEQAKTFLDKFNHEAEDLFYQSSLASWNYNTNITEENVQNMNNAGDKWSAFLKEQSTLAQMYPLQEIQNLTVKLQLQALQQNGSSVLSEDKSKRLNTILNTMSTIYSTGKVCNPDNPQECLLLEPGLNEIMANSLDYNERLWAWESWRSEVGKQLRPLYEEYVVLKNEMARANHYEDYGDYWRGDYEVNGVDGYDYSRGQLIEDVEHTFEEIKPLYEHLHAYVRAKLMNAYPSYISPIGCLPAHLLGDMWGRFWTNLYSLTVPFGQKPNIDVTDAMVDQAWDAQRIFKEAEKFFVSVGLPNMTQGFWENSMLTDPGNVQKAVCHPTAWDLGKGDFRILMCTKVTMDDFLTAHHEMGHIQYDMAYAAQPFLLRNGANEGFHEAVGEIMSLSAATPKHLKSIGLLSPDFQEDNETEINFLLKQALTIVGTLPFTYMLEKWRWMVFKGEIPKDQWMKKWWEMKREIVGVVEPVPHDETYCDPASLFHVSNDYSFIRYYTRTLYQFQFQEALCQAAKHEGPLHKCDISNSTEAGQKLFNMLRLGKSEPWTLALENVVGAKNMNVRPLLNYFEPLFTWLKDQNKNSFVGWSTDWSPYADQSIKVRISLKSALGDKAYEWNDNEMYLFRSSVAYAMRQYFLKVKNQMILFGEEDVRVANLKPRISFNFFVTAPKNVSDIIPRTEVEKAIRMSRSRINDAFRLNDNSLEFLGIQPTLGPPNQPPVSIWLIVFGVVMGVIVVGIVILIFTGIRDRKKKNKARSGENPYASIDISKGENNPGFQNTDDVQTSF

Q: CCCCc1nc(Cl)c(CO)n1Cc1ccc(-c2ccccc2-c2nn[nH]n2)cc1 [losartan] was tested. Which pKd did it give?
A: 7.86
